In one test the target is Met (Homo sapiens, UniProt P08581). The test can be described thus: Human Met kinase assay (33P-phosphoryl transfer radiometric, KinaseProfiler). Details: Human Met (residues R974-S1390 with A1209G and V1290L, 3.4 nM); purchased Eurofins Pharma Discovery Services UK Limited (KinaseProfiler service). Particulars: biochemical activity; 10 μM ATP; read-out: c-Met IC50. On the procedure:
Kinase activity and compound inhibition were investigated using the ^33P-Phosphoryl transfer radiometric kinase assay, performed using the KinaseProfiler™ service of Eurofins Pharma Discovery Services UK Limited. Dose-response experiments were performed using nine compound concentrations in a 96-well microtiter plate. For each assay, all compounds were prepared to a 50× final assay concentration (50 μM) in 100% DMSO, then diluted in a half-log series, with the final top concentration at 1 μM. This working stock of the compound was added to the assay well as the first component in the reaction, followed by the remaining components as detailed in the following assay protocols below. The positive control wells (100% kinase activity) contain all components of the reaction including 2% DMSO (control for solvent effects), except the compound of interest. Blank wells contain all components of the reaction, with the reference inhibitor, staurosporine. This reference compound was used to abolish kinase activity and generated the 0% kinase activity base-line. IC50 values were calculated by nonlinear regression analysis using the sigmoidal dose-response (variable slope) curve fit on XLFit version 5.3 (ID Business Solutions).
Human Met (residues R974-S1390 with A1209G and V1290L, 3.4 nM) was incubated with 8 mM MOPS pH 7.0, 0.2 mM EDTA, 250 μM KKKGQEEEYVFIE, 1 mM sodium orthovanadate, 5 mM […], 10 mM magnesium acetate, and 10 μM [γ-^33P-ATP]. The reaction was initiated by the addition of the Mg/ATP mix. After incubation for 40 minutes at room temperature, the reaction was stopped by the addition of phosphoric acid to a concentration of 0.5%. A reaction aliquot of 10 μL was then spotted onto a P30 filtermat and washed four times for 4 minutes in 0.425% phosphoric acid and once in methanol prior to drying and scintillation counting. Incorporated ^33P was measured using the Wallac Microbeta scintillation counter (Perkin Elmer).

The target in a further test is T1, Mer (Homo sapiens, UniProt Q12866).
T1 construct: host or cells: 293A cells (Thermo Fisher #R70507)
T1 sequence (Q12866 21-999): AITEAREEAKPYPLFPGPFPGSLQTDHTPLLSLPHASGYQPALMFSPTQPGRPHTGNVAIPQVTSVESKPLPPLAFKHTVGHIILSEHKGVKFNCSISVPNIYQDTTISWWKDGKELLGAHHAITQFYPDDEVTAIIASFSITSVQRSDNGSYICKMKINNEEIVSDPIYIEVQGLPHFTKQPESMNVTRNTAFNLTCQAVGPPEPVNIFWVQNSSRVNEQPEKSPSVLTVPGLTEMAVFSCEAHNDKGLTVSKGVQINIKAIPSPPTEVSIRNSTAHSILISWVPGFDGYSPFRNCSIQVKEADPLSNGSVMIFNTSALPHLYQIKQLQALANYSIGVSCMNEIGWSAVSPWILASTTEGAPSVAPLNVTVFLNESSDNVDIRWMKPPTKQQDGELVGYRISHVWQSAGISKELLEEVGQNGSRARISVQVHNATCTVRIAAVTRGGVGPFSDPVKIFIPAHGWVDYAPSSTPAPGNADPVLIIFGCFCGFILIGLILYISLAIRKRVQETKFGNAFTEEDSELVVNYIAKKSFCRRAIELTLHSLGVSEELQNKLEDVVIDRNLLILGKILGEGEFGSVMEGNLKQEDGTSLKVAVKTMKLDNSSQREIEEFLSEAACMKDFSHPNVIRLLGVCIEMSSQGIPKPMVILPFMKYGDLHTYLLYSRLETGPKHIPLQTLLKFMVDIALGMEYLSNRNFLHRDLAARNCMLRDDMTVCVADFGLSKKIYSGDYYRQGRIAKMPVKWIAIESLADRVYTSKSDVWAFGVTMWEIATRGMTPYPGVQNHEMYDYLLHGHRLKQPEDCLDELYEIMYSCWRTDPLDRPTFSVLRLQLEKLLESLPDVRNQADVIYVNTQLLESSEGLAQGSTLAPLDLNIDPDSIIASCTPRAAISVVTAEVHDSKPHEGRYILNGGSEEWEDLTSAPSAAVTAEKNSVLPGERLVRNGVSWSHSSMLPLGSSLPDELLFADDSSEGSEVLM
As to the kind of experiment: Mer autophosphorylation ELISA in transient transfected 293A cells. It counts as cell-based. The settings on record: cellular activity; MERTK-transfected 293A cells, phospho-Mer ELISA. On the procedure:
293A cells (Thermo Fisher #R70507) were seeded at 1.5×10^6 cells/well onto 100 mm dish (Greiner #664169), in DMEM (Thermo Fisher #11995-040) containing 10% FBS (Thermo Fisher #26140-079), 1% MEM NEAA (Thermo Fisher #11140-050), 1% GlutaMax (Thermo Fisher #35050-061), and 1% Penicillin Streptomycin (Thermo Fisher #15140-122). 293A cells were incubated at 37° C., 5% CO2 for 24 h and then transfected with 6 μg MERTK DNA (Genecopoeia #EX-Z8208-M02) using TransIT LT1 transfection reagent (Mirus-Bio #MIR2305). After 24 h incubation, the transfected 293A cells were seeded at 1×10^5 cells/well onto 96-well plates (Corning #3904) in DMEM growth medium overnight. Test compounds were serially diluted to produce an 8-point dose curve in fresh serum-free medium to a final concentration of 0.3% DMSO (vehicle) and added to the cells and incubated for 1 h. Cells were then immediately lysed with 150 μL of cold 1× lysis buffer [20 mM Tris, 137 mM sodium chloride, 2 mM EDTA, 10% glycerol, 1% NP-40 alternative, 1 mM activated sodium orthovanadate, 1 mM PefaBloc SC (Sigma-Aldrich #11429868001), protease/phosphatase inhibitor tablet (Thermo Fisher #A32959)]. Lysates were clarified by centrifugation and 50 μL/well added into the human phospho-Mer DuoSet IC ELISA (R&D Systems #DYC2579-2). Assay was performed according to manufacturer's instructions and sample phospho-Mer concentrations were extrapolated using human phospho-Mer control (R&D Systems #841793) as a standard. Positive control wells (100% activity) contained DMSO-treated cell lysates. Negative control wells (0% activity) contained reference inhibitor-treated cell lysates. IC50 values were calculated by nonlinear regression analysis using a 4-parameter logistic curve fit in ActivityBase XE (IDBS).
In general terms: ELISA stands for enzyme-linked immunosorbent assay.

Sequence of Met (P08581 974-1390): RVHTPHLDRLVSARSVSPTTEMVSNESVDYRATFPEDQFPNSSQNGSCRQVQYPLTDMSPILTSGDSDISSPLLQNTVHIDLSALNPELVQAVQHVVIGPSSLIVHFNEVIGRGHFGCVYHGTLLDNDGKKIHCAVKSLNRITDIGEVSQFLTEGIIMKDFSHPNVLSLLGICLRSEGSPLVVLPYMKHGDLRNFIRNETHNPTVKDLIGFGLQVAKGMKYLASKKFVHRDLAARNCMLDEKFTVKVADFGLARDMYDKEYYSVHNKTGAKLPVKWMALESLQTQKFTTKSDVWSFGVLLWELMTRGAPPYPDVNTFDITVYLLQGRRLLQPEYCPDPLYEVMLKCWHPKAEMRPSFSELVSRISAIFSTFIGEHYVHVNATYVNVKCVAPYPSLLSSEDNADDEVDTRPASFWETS

For orientation: IC50 means the concentration needed to halve the response being measured. As to `CC1Cc2cc(F)ccc2N1C(=O)C1(C(=O)Nc2ccc(Oc3ccnc4cc(-c5cnn(C)c5)ccc34)cc2)CC1` (stereo not drawn) [Compound 80, 1-(5-Fluoro-2-methyl-2,3-dihydroindole-1-carbonyl)-N-[4-[7-(1-methylpyrazol-4-yl)quinolin-4-yl]oxyphenyl]cyclopropane-1-carboxamide], the IC50 at Met is 10 to 100 nM; at Mer, > 300 nM.
With `Cn1cnc(-c2ccc3c(Oc4ccc(NC(=O)C5(C(=O)Nc6ccc(F)cc6)CC5)cc4)ccnc3c2)c1` [Compound 69, 1-N′-(4-Fluorophenyl)-1-N-[4-[7-(1-methylimidazol-4-yl)quinolin-4-yl]oxyphenyl]cyclopropane-1,1-dicarboxamide], the results for the concentration for half-maximal inhibition (IC50) at Met and on Mer were ≤ 10 nM and 10 to 100 nM, respectively.
In the case of `O=C(Nc1ccc(F)cc1)C1(C(=O)Nc2ccc(Oc3ccnc4cc(-c5ccnnc5)ccc34)cc2)CC1` [Compound 28, 1-N′-(4-Fluorophenyl)-1-N-[4-(7-pyridazin-4-ylquinolin-4-yl)oxyphenyl]cyclopropane-1,1-dicarboxamide], the half-inhibitory concentration (IC50) on Met was ≤ 10 nM; on Mer, 10 to 100 nM.
For `O=C(Nc1ccc(F)cc1)C1(C(=O)Nc2ccc(Oc3ccnc4cc(-c5ncco5)ccc34)cc2)CC1` [Compound 66, 1-N′-(4-Fluorophenyl)-1-N-[4-[7-(1,3-oxazol-2-yl)quinolin-4-yl]oxyphenyl]cyclopropane-1,1-dicarboxamide] the same measures were ≤ 10 nM and 10 to 100 nM.
`Cn1ccnc1-c1ccc2c(Oc3ccc(NC(=O)C4(C(=O)Nc5ccc(F)cc5)CC4)cc3)ccnc2c1` [Compound 75, 1-N′-(4-Fluorophenyl)-1-N-[4-[7-(1-methylimidazol-2-yl)quinolin-4-yl]oxyphenyl]cyclopropane-1,1-dicarboxamide]: the results for the IC50 at Met and at Mer were ≤ 10 nM and 10 to 100 nM, respectively.
As for `O=C(Nc1ccc(F)cc1)C1(C(=O)Nc2ccc(Oc3ccnc4cc(-c5cnn(C6COC6)c5)ccc34)cc2)CC1` [Compound 24, 1-N′-(4-Fluorophenyl)-1-N-[4-[7-[1-(oxetan-3-yl)pyrazol-4-yl]quinolin-4-yl]oxyphenyl]cyclopropane-1,1-dicarboxamide], the IC50 on Met and at Mer was ≤ 10 nM each time.
In the case of `O=C(Nc1ccc(F)cc1)C1(C(=O)Nc2ccc(Oc3ccnc4cc(-c5ccn(C(F)F)n5)ccc34)cc2)CC1` [Compound 84, 1-N-[4-[7-[1-(Difluoromethyl)pyrazol-3-yl]quinolin-4-yl]oxyphenyl]-1-N′-(4-fluorophenyl)cyclopropane-1,1-dicarboxamide], the IC50 at Met and against Mer was 10 to 100 nM in each case.
Take `O=C(Nc1ccc(F)cc1)C1(C(=O)Nc2ccc(Oc3ccnc4cc(-c5cnn(CCN6CCOCC6)c5)ccc34)cc2)CC1` [Compound 19, 1-N′-(4-Fluorophenyl)-1-N-[4-[7-[1-(2-morpholin-4-ylethyl)pyrazol-4-yl]quinolin-4-yl]oxyphenyl]cyclopropane-1,1-dicarboxamide]: the half-maximal inhibitory concentration (IC50) at Met and on Mer was ≤ 10 nM throughout.
Consider `O=C(Nc1ccc(F)cc1)C1(C(=O)Nc2ccc(Oc3ccnc4cc(-c5cncnc5)ccc34)cc2)CC1` [Compound 27, 1-N′-(4-Fluorophenyl)-1-N-[4-(7-pyrimidin-5-ylquinolin-4-yl)oxyphenyl]cyclopropane-1,1-dicarboxamide], for which the IC50 was ≤ 10 nM at Met and 10 to 100 nM against Mer.
For `O=C(Nc1ccc(F)cc1)C1(C(=O)Nc2ccc(Oc3ccnc4cc(-c5cccnc5)ccc34)cc2)CC1` [Compound 25, 1-N′-(4-Fluorophenyl)-1-N-[4-(7-pyridin-3-ylquinolin-4-yl)oxyphenyl]cyclopropane-1,1-dicarboxamide] the same measures were ≤ 10 nM and 10 to 100 nM.
Consider `O=C(Nc1ccc(F)cc1)C1(C(=O)Nc2ccc(Oc3ccnc4cc(-c5cnn(CCF)c5)ccc34)cc2)CC1` [Compound 14, 1-N-[4-[7-[1-(2-Fluoroethyl)pyrazol-4-yl]quinolin-4-yl]oxyphenyl]-1-N′-(4-fluorophenyl)cyclopropane-1,1-dicarboxamide], for which the IC50 at Met and at Mer was ≤ 10 nM in each case.
Consider `O=C(Nc1ccc(F)cc1)C1(C(=O)Nc2ccc(Oc3ccnc4cc(-c5ccn[nH]5)ccc34)cc2)CC1` [Compound 68, 1-N′-(4-Fluorophenyl)-1-N-[4-[7-(1H-pyrazol-5-yl)quinolin-4-yl]oxyphenyl]cyclopropane-1,1-dicarboxamide], for which the results for the IC50 on Met and at Mer were ≤ 10 nM and 10 to 100 nM, respectively.
For `COc1cc2c(Oc3ccc(NC(=O)C4(C(=O)Nc5ccc(F)cc5)CC4)cc3)ccnc2cc1-c1cnn(C)c1` [Compound 76, 1-N′-(4-Fluorophenyl)-1-N-[4-[6-methoxy-7-(1-methylpyrazol-4-yl)quinolin-4-yl]oxyphenyl]cyclopropane-1,1-dicarboxamide] the same measures were ≤ 10 nM and ≤ 10 nM.
With `O=C(Nc1ccc(F)cc1)C1(C(=O)Nc2ccc(Oc3ccnc4cc(-c5ccncc5)ccc34)cc2)CC1` [Compound 26, 1-N′-(4-Fluorophenyl)-1-N-[4-(7-pyridin-4-ylquinolin-4-yl)oxyphenyl]cyclopropane-1,1-dicarboxamide], the half-inhibitory concentration (IC50) at Met is ≤ 10 nM; against Mer, 10 to 100 nM.
For `O=C(Nc1ccc(F)cc1)C1(C(=O)Nc2ccc(Oc3ccnc4cc(-c5cnoc5)ccc34)cc2)CC1` [Compound 57, 1-N′-(4-Fluorophenyl)-1-N-[4-[7-(1,2-oxazol-4-yl)quinolin-4-yl]oxyphenyl]cyclopropane-1,1-dicarboxamide] the same measures were ≤ 10 nM and 10 to 100 nM.

The values above are taken from patent US12503438B2, “Compounds for the treatment of kinase-dependent disorders” (Exelixis, Inc., priority 2019, dated 2025).
